ChEMBL document CHEMBL3351409, “Repurposing cryptosporidium inosine 5'-monophosphate dehydrogenase inhibitors as potential antibacterial agents” (ACS Med Chem Lett, 2014)
pIC50, pKi: −log10 of the molar value. Converted amounts (≈) assume the structure as drawn. The source made the active and inactive calls. The rule behind the calls is not given here.

Experiments:
[1] = biological target: T1, Inosine-5'-monophosphate dehydrogenase (Cryptosporidium parvum, UniProt Q8T6T2); test: Inhibition of Cryptosporidium IMPDH preincubated for 10 mins before substrate addition by spectrophotometry
T1 sequence (Q8T6T2 whole entry): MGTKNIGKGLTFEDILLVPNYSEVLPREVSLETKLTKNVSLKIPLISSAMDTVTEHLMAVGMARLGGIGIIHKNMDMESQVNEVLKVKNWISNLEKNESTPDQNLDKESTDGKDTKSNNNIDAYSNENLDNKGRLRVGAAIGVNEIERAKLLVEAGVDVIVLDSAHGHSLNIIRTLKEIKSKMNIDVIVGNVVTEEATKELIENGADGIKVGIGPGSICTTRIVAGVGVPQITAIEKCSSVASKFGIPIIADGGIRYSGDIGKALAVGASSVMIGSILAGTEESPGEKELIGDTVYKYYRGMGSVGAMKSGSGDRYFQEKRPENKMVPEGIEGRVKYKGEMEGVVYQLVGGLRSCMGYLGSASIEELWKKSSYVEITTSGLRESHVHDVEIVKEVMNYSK

[2] = Selectivity ratio of IC50 for Bacillus anthracis IMPDH to IC50 for Cryptosporidium IMPDH
[3] = biological target: T2, Inosine-5'-monophosphate dehydrogenase (Bacillus anthracis, UniProt A0A6L8P2U9); test: Non-competitive inhibition of Bacillus anthracis IMPDH preincubated for 10 mins before IMP substrate addition by spectrophotometry
T2 sequence (A0A6L8P2U9 whole entry): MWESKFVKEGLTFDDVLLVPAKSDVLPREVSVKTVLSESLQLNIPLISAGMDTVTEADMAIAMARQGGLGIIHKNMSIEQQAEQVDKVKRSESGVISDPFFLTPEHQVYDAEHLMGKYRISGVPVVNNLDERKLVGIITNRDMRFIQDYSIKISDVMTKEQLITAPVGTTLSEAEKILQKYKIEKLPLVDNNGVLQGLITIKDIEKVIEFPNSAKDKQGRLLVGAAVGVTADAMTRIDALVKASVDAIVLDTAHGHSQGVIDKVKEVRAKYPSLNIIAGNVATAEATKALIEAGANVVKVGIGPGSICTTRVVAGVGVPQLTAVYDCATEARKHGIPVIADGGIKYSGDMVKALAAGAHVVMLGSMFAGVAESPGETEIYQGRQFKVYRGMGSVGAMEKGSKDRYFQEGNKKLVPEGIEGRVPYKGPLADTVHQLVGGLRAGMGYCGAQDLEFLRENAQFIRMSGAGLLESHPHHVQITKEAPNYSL

[4] = biological target: T1, Inosine-5'-monophosphate dehydrogenase; test: Un-competitive inhibition of Cryptosporidium IMPDH preincubated for 10 mins before IMP substrate addition by spectrophotometry
[5] = biological target: T1, Inosine-5'-monophosphate dehydrogenase; test: Non-competitive inhibition of Cryptosporidium IMPDH preincubated for 10 mins before NAD+ substrate addition by spectrophotometry
[6] = biological target: T2, Inosine-5'-monophosphate dehydrogenase; test: Non-competitive inhibition of Bacillus anthracis IMPDH preincubated for 10 mins before NAD+ substrate addition by spectrophotometry
[7] = biological target: T2, Inosine-5'-monophosphate dehydrogenase; test: Inhibition of Bacillus anthracis IMPDH preincubated for 10 mins before substrate addition by spectrophotometry
[8] = biological target: T1, Inosine-5'-monophosphate dehydrogenase; test: Competitive inhibition of Cryptosporidium IMPDH preincubated for 10 mins before NAD+ substrate addition by spectrophotometry
[9] = Antibacterial activity against Bacillus anthracis Sterne 7702; assay type: functional, Bacillus anthracis str. Sterne
[10] = Antibacterial activity against Bacillus anthracis Sterne 7702 in presence of 0.01 % guanine; assay type: functional, Bacillus anthracis str. Sterne
Staphylococcus aureus [11] = test: Antibacterial activity against Staphylococcus aureus NCTC 8325; assay type: functional
Staphylococcus aureus [12] = test: Antibacterial activity against Staphylococcus aureus NCTC 8325 in presence of 0.01 % guanine; assay type: functional
Staphylococcus aureus [13] = test: Antibacterial activity against Staphylococcus aureus ATCC 13709 Smith; assay type: functional
Staphylococcus aureus [14] = test: Antibacterial activity against Staphylococcus aureus ATCC 13709 Smith in presence of 0.01 % guanine; assay type: functional
Listeria monocytogenes [15] = test: Antibacterial activity against Listeria monocytogenes 10403S; assay type: functional
Listeria monocytogenes [16] = test: Antibacterial activity against Listeria monocytogenes 10403S in presence of 0.01 % guanine; assay type: functional
[17] = tested on: Bacillus anthracis str. Sterne; test: Ratio of MIC for Bacillus anthracis Sterne 7702 in presence of 0.01 % guanine to MIC for Bacillus anthracis Sterne 7702; assay type: functional
Staphylococcus aureus [18] = test: Ratio of MIC for Staphylococcus aureus NCTC 8325 in presence of 0.01 % guanine to MIC for Staphylococcus aureus NCTC 8325; assay type: functional
Staphylococcus aureus [19] = test: Ratio of MIC for Staphylococcus aureus ATCC 13709 Smith in presence of 0.01 % guanine to MIC for Staphylococcus aureus ATCC 13709 Smith; assay type: functional
Listeria monocytogenes [20] = test: Ratio of MIC for Listeria monocytogenes 10403S in presence of 0.01 % guanine to MIC for Listeria monocytogenes 10403S; assay type: functional

## C/C(=N\O)c1cccc(C(C)(C)NC(=O)Nc2ccc(Br)cc2)c1
[1]
  pIC50: 8.05
[2]
  Ratio IC50: < 0.5
[3]
  pKi: 7.32
[4]
  pKi: 7.92
[5]
  pKi: 7.82
[6]
  pKi: 8.64

## CC(C)C(Oc1cccc2ccccc12)C(=O)Nc1ccc(Cl)cc1 (centres undefined)
[7]
  pIC50: 6.92
[1]
  pIC50: 6.15
[2]
  Ratio IC50: < 0.5

## C[C@H](Oc1cccc2ccccc12)C(=O)Nc1ccc2oc(-c3ccncc3)nc2c1
[3]
  pKi: 7.62
[4]
  pKi: 7.19
[8]
  pKi: 7.89
[6]
  pKi: 7.77

## CC(Oc1cccc([N+](=O)[O-])c1Cl)C(=O)Nc1ccc2oc(-c3ccncc3)nc2c1 (centres undefined)
[7]
  pIC50: 7.85
[1]
  pIC50: 7.31
[2]
  Ratio IC50: < 0.5

## CC(=O)c1cccc(CNC(=O)Nc2ccc(Cl)cc2)c1
[7]
  pIC50: 5.92
[1]
  pIC50: < 5.30
[2]
  Ratio IC50: < 0.5

## O=C(Cn1c(-c2ccccn2)nc2ccccc21)Nc1ccc2ccccc2c1
[3]
  pKi: 6.09
[4]
  pKi: 7.89
[5]
  pKi: 7.85
[6]
  pKi: 7.36

## C[C@@H](Oc1cc[n+]([O-])c2ccccc12)c1cn(-c2ccc(Cl)cc2)nn1
[3]
  pKi: 7.42
[4]
  pKi: 8.30
[9]
  MIC: 1 µM (≈ 0.367 µg/mL)
[10]
  MIC: 8 µM
Staphylococcus aureus [11]
  MIC: 1.8 µM (≈ 0.66 µg/mL)
Staphylococcus aureus [12]
  MIC: > 30 µM
Staphylococcus aureus [13]
  MIC: 2 µM (≈ 0.734 µg/mL)
Staphylococcus aureus [14]
  MIC: 16 µM
Listeria monocytogenes [15]
  MIC: 7.5 µM (≈ 2.75 µg/mL)
Listeria monocytogenes [16]
  MIC: inactive
[17]
  Ratio: 8
Staphylococcus aureus [18]
  Ratio: 8
Staphylococcus aureus [19]
  Ratio: 8
Listeria monocytogenes [20]
  Ratio: 8
[8]
  pKi: 8.30
[6]
  pKi: 7.24

## C/C(=N\O)c1cccc(C(C)(C)NC(=O)Nc2ccc(Cl)c(Cl)c2)c1
[7]
  pIC50: 7.02
[1]
  pIC50: 6.72
[2]
  Ratio IC50: < 0.5

## C[C@H](Nc1cccc(Cl)c1Cl)C(=O)Nc1ccc2oc(-c3ccncc3)nc2c1
[7]
  pIC50: 8.30
[2]
  Ratio IC50: < 0.5

## C[C@H](C(=O)Nc1ccc2oc(-c3ccncc3)nc2c1)c1ccccc1
[2]
  Ratio IC50: < 0.5

## C/C(=N\O)c1cccc(C(C)(C)NC(=O)Nc2ccc(Cl)c(C(N)=O)c2)c1
[3]
  pKi: 8.82
[4]
  pKi: 8.70
[5]
  pKi: 8.22
[6]
  pKi: 8.10

## C[C@H](Oc1cccc(Cl)c1Cl)C(=O)Nc1ccc2nc(-c3ccncc3)oc2c1
[7]
  pIC50: 8.00
[2]
  Ratio IC50: < 0.5

## C[C@H](Oc1cccc(Cl)c1Cl)C(=O)Nc1ccc2oc(-c3ccncc3)nc2c1
[7]
  pIC50: 8.00
[2]
  Ratio IC50: < 0.5

## C/C(=N\O)c1cccc(C(C)(C)NC(=O)Nc2ccc(Cl)c(C(=O)N3CCOCC3)c2)c1
Staphylococcus aureus [11]
  MIC: 3.8 µM (≈ 1.74 µg/mL)
Staphylococcus aureus [12]
  MIC: 7.5 µM
Staphylococcus aureus [13]
  MIC: 2 µM (≈ 0.918 µg/mL)
Staphylococcus aureus [14]
  MIC: > 30 µM
Listeria monocytogenes [15]
  MIC: > 30 µM
Staphylococcus aureus [18]
  Ratio: 8
Staphylococcus aureus [19]
  Ratio: 8
Listeria monocytogenes [20]
  Ratio: 8

## O=C(Nc1ccc(Cl)cc1)C(Oc1cccc2ccccc12)C1CC1 (centres undefined)
[1]
  pIC50: < 5.30
[2]
  Ratio IC50: < 0.5

## C[C@@H](Oc1cccc2cnccc12)c1cn(-c2ccc(Cl)cc2)nn1
[9]
  MIC: 2 µM (≈ 0.702 µg/mL)
[10]
  MIC: > 30 µM
Staphylococcus aureus [11]
  MIC: 7.5 µM (≈ 2.63 µg/mL)
Staphylococcus aureus [12]
  MIC: > 30 µM
Staphylococcus aureus [13]
  MIC: 8 µM (≈ 2.81 µg/mL)
Staphylococcus aureus [14]
  MIC: > 30 µM
Listeria monocytogenes [15]
  MIC: 3.8 µM (≈ 1.33 µg/mL)
[17]
  Ratio: 8
Staphylococcus aureus [18]
  Ratio: 8
Staphylococcus aureus [19]
  Ratio: 8
Listeria monocytogenes [20]
  Ratio: 8

## CCN(CC)C(=O)c1ccc(NC(=O)NC(C)(C)c2cccc(/C(C)=N/O)c2)cc1Cl
[9]
  MIC: 0.5 µM (≈ 0.222 µg/mL)
[10]
  MIC: > 30 µM
Staphylococcus aureus [11]
  MIC: 0.9 µM (≈ 0.4 µg/mL)
Staphylococcus aureus [12]
  MIC: > 30 µM
Staphylococcus aureus [13]
  MIC: 4 µM (≈ 1.78 µg/mL)
Staphylococcus aureus [14]
  MIC: > 30 µM
Listeria monocytogenes [15]
  MIC: 15 µM (≈ 6.67 µg/mL)
[17]
  Ratio: 8
Staphylococcus aureus [18]
  Ratio: 8
Staphylococcus aureus [19]
  Ratio: 8
Listeria monocytogenes [20]
  Ratio: 8

## C/C(=N\O)c1cccc(C(C)(C)NC(=O)Nc2ccc(Cl)c(C(=O)N3CCN(C)CC3)c2)c1
[1]
  pIC50: 6.48
[2]
  Ratio IC50: < 0.5

## O=C(COc1cccc2ccccc12)Nc1ccc(Br)cc1
[7]
  pIC50: 6.12
[1]
  pIC50: < 5.30
[2]
  Ratio IC50: < 0.5

## C=C(C)c1cccc(C(C)(C)NC(=O)Nc2ccc(Cl)c(C(F)(F)F)c2)c1
[2]
  Ratio IC50: < 0.5

## Cn1nc(CC(=O)Nc2ccc3oc4c(c3c2)CCCC4)c2ccccc2c1=O
[3]
  pKi: 7.92
[4]
  pKi: 8.30
[5]
  pKi: 7.31
[6]
  pKi: 6.30

## CC(Oc1ccc(-c2ccccc2)cc1)C(=O)Nc1ccc(Cl)cc1 (centres undefined)
[1]
  pIC50: 5.96
[2]
  Ratio IC50: < 0.5

## O=C(Nc1ccc(Cl)cc1)C(Oc1cccc2ccccc12)c1ccccc1 (centres undefined)
[7]
  pIC50: 5.62
[1]
  pIC50: < 5.30
[2]
  Ratio IC50: < 0.5

## C[C@H](Oc1cccc(Cl)c1Cl)C(=O)Nc1cccc(NC(=O)c2ccncc2)c1
[7]
  pIC50: 6.52
[2]
  Ratio IC50: < 0.5

## C/C(=N\O)c1cccc(C(C)(C)NC(=O)Nc2ccc(Cl)c(C(F)(F)F)c2)c1
[7]
  pIC50: 8.70
[2]
  Ratio IC50: < 0.5
